The SangsterLogP compilation

Assay: method code SF-AS, from DOI: 10.1897/1552-8618(1992)11[901:aapohp]2.0.co;2

**Q.** For CC(=O)Nc1ccc(Cl)c(Cl)c1Cl, which logP is on record?
**A.** 2.88

**Q.** Which logP does the source give for CC(=O)Nc1ccc(Cl)cc1F here?
**A.** 1.91

**Q.** For N#Cc1ccccc1C#N, which logP is on record?
**A.** 0.99

**Q.** With COc1ccc(NC(C)=O)c([N+](=O)[O-])c1 as the molecule, how does the logP read?
**A.** 1.09

**Q.** With CC(=O)Nc1c([N+](=O)[O-])cccc1[N+](=O)[O-] as the molecule, how does the logP read?
**A.** 0.56

**Q.** For COc1c(C)cccc1C, which logP is on record?
**A.** 3.02

**Q.** For CC(=O)Nc1c(C)cccc1Cl, which logP is on record?
**A.** 1.22

**Q.** With CC(=O)Nc1cccc(Cl)c1C as the molecule, how does the logP read?
**A.** 1.82

**Q.** With CCCc1cc(NC(C)=O)ccc1OC as the molecule, how does the logP read?
**A.** 2.72

**Q.** For CC(=O)Nc1cc(Cl)cc(C(F)(F)F)c1F, which logP is on record?
**A.** 3.15

**Q.** Which logP does the source give for CC(=O)Nc1c(F)c(F)c(F)c(F)c1F here?
**A.** 1.7

**Q.** For CC(=O)Nc1cc(Cl)c(F)c(Cl)c1F, which logP is on record?
**A.** 2.9

**Q.** With CC(=O)Nc1ccc(C)c(C)c1 as the molecule, how does the logP read?
**A.** 2.1

**Q.** For CC(=O)Nc1cc(C(F)(F)F)ccc1F, which logP is on record?
**A.** 2.24

**Q.** With CC(=O)Nc1cc(C)ccc1C as the molecule, how does the logP read?
**A.** 1.47

**Q.** For CC(=O)Nc1cc(C(F)(F)F)cc(C(F)(F)F)c1Br, which logP is on record?
**A.** 3.51

**Q.** For COc1ccccc1F, which logP is on record?
**A.** 2.14

**Q.** Which logP does the source give for CC(=O)Nc1cc(C)cc(C)c1 here?
**A.** 2.17

**Q.** With NC(=O)c1c(F)cccc1Br as the molecule, how does the logP read?
**A.** 0.63

**Q.** For CC(=O)Nc1c(C)cc(C)cc1[N+](=O)[O-], which logP is on record?
**A.** 1.18

**Q.** With CC(=O)Nc1cc(C(F)(F)F)c(Cl)cc1F as the molecule, how does the logP read?
**A.** 3.02

**Q.** For Cc1cccc(C)c1C(N)=O, which logP is on record?
**A.** 0.9

**Q.** Which logP does the source give for CC(=O)Nc1ccc(C)cc1C here?
**A.** 1.46

**Q.** Which logP does the source give for COc1cccc(NC(C)=O)c1C here?
**A.** 1.13

**Q.** Which logP does the source give for COc1c(C)cccc1NC(C)=O here?
**A.** 1.28

**Q.** For CC(=O)Nc1cc(Cl)c(Cl)c(Cl)c1, which logP is on record?
**A.** 3.76

**Q.** With CC(=O)Nc1ccc(C)c(C)c1C as the molecule, how does the logP read?
**A.** 1.76

**Q.** For CC(=O)Nc1cccc([N+](=O)[O-])c1, which logP is on record?
**A.** 1.47

**Q.** With COc1cccc(OC)c1C as the molecule, how does the logP read?
**A.** 2.87

**Q.** For CCCCc1ccc(NC(C)=O)c(C)c1, which logP is on record?
**A.** 3.1

**Q.** With Cc1cccc(Cl)c1C(N)=O as the molecule, how does the logP read?
**A.** 0.89

**Q.** With CCc1ccccc1OC as the molecule, how does the logP read?
**A.** 3.18

**Q.** For CC(=O)Nc1cc(Cl)cc(C(F)(F)F)c1Cl, which logP is on record?
**A.** 3.27

**Q.** For CC(=O)Nc1ccc(C)cc1[N+](=O)[O-], which logP is on record?
**A.** 1.49

**Q.** With CCCCc1ccc(NC(C)=O)c([N+](=O)[O-])c1 as the molecule, how does the logP read?
**A.** 3.1

**Q.** For NC(=O)c1c(Cl)cccc1[N+](=O)[O-], which logP is on record?
**A.** 0.12

**Q.** For CC(C)c1ccccc1[N+](=O)[O-], which logP is on record?
**A.** 3.34

**Q.** For COc1cccc([N+](=O)[O-])c1C(N)=O, which logP is on record?
**A.** -0.26

**Q.** Which logP does the source give for CC(=O)Nc1ccccc1Oc1ccccc1 here?
**A.** 2.37

**Q.** For CCc1cccc(CC)c1NC(C)=O, which logP is on record?
**A.** 1.85

**Q.** With CC(=O)Nc1ccccc1F as the molecule, how does the logP read?
**A.** 1.03

**Q.** With O=[N+]([O-])c1cc(C(F)(F)F)cc([N+](=O)[O-])c1Cl as the molecule, how does the logP read?
**A.** 2.5

**Q.** With CC(=O)Nc1cccc(C)c1C as the molecule, how does the logP read?
**A.** 1.35

**Q.** Which logP does the source give for CC(=O)Nc1cc(C(F)(F)F)cc(Cl)c1Cl here?
**A.** 3.27

**Q.** Which logP does the source give for CC(=O)Nc1ccc(Cl)cc1C(F)(F)F here?
**A.** 1.98

**Q.** For CC(=O)Nc1cc(Cl)ccc1Cl, which logP is on record?
**A.** 2.19

**Q.** For CC(=O)Nc1cc(C)c(C)c(C)c1, which logP is on record?
**A.** 2.5

**Q.** Which logP does the source give for CC(=O)Nc1cccc(Cl)c1F here?
**A.** 1.83

**Q.** Which logP does the source give for CC(=O)Nc1c(C)cccc1[N+](=O)[O-] here?
**A.** 0.61

**Q.** For C=CCOc1cc(NC(C)=O)c(F)cc1Cl, which logP is on record?
**A.** 2.76

**Q.** With COc1c(Cl)cccc1NC(C)=O as the molecule, how does the logP read?
**A.** 1.68

**Q.** For CC(=O)Nc1cc(Cl)ccc1C, which logP is on record?
**A.** 1.85

**Q.** Which logP does the source give for CCc1cccc(C)c1NC(C)=O here?
**A.** 1.41

**Q.** With CC(=O)Nc1ccc(C)c(Cl)c1 as the molecule, how does the logP read?
**A.** 2.69

**Q.** For CC(=O)Nc1c(F)cccc1F, which logP is on record?
**A.** 0.69

**Q.** For NC(=O)c1ccccc1I, which logP is on record?
**A.** 0.93

**Q.** For CCCCc1ccc(NC(C)=O)cc1C, which logP is on record?
**A.** 3.64

**Q.** With Cc1ccccc1C(N)=O as the molecule, how does the logP read?
**A.** 0.76

**Q.** With NC(=O)c1ccccc1C(F)(F)F as the molecule, how does the logP read?
**A.** 0.68

**Q.** With COc1ccc(C)c(OC)c1 as the molecule, how does the logP read?
**A.** 2.76

**Q.** For CC(=O)Nc1ccc(OC(F)(F)F)cc1, which logP is on record?
**A.** 2.62

**Q.** With CCCCc1ccc(NC(C)=O)cc1 as the molecule, how does the logP read?
**A.** 3.3

**Q.** With CCc1cccc(C(C)C)c1NC(C)=O as the molecule, how does the logP read?
**A.** 2.1

**Q.** With O=[N+]([O-])c1ccc(Cl)cc1[N+](=O)[O-] as the molecule, how does the logP read?
**A.** 2.18

**Q.** For COc1cccc(Cl)c1C(N)=O, which logP is on record?
**A.** 0.59

**Q.** For CC(=O)Nc1ccc(Oc2ccccn2)cc1, which logP is on record?
**A.** 1.57

**Q.** With CC(=O)Nc1cc(Cl)cc(Cl)c1 as the molecule, how does the logP read?
**A.** 3.17

**Q.** With CC(=O)Nc1cc(C(F)(F)F)c(Cl)cc1Cl as the molecule, how does the logP read?
**A.** 3.24

**Q.** Which logP does the source give for CC(=O)Nc1ccccc1I here?
**A.** 1.62

**Q.** With CC(=O)Nc1ccc(Cl)cc1Cl as the molecule, how does the logP read?
**A.** 2.18

**Q.** Which logP does the source give for CC(=O)Nc1cc(C(F)(F)F)cc(C(F)(F)F)c1 here?
**A.** 3.72

**Q.** For CCc1ccccc1C(N)=O, which logP is on record?
**A.** 1.17

**Q.** With CC(=O)Nc1ccc(Cl)cc1[N+](=O)[O-] as the molecule, how does the logP read?
**A.** 1.78

**Q.** Which logP does the source give for NC(=O)c1c(F)cccc1Cl here?
**A.** 0.49

**Q.** Which logP does the source give for CC(=O)Nc1ccccc1-c1ccccc1 here?
**A.** 2.02

**Q.** For COc1cccc(OC)c1C(N)=O, which logP is on record?
**A.** -0.22

**Q.** With COc1cccc([N+](=O)[O-])c1C as the molecule, how does the logP read?
**A.** 2.68

**Q.** With CC(=O)Nc1cc(F)cc(C(F)(F)F)c1Cl as the molecule, how does the logP read?
**A.** 2.86

**Q.** With CC(=O)Nc1c(C)cccc1C as the molecule, how does the logP read?
**A.** 1.07

**Q.** With CC(=O)Nc1c(Cl)cccc1Cl as the molecule, how does the logP read?
**A.** 1.32

**Q.** Which logP does the source give for NC(=O)c1c(Cl)cccc1Br here?
**A.** 1

**Q.** With CC(C)c1ccccc1C(N)=O as the molecule, how does the logP read?
**A.** 1.39

**Q.** With CC(=O)Nc1c(C(C)C)cccc1C(C)C as the molecule, how does the logP read?
**A.** 2.41

**Q.** For CC(=O)Nc1ccc(Cl)c(C(F)(F)F)c1, which logP is on record?
**A.** 3.33

**Q.** With CC(=O)Nc1cc(C(F)(F)F)c(F)cc1F as the molecule, how does the logP read?
**A.** 2.34

**Q.** With CC(=O)Nc1cccc(Cl)c1Cl as the molecule, how does the logP read?
**A.** 2.09

**Q.** Which logP does the source give for COc1ccc(OC)c(Cl)c1 here?
**A.** 2.69
